The values that follow come from publication PMC8284004, “Electrospun wound dressings containing bioactive natural products: physico-chemical characterization and biological assessment” (Biomaterials Research, 2021).

Read-outs that look alike come from different tables or passages of the source. Marks after values point to notes of the source that are not given here.

Data set [1] concerns S. aureus. The arrangement: method as in PMID 760130, PMID 5066306. As to conditions: cited from earlier work.
For data set [2] the following is noted: n-octanol/water (1:1, v/v) ref Ordoudi et al. [24]; cited from earlier work.
Data set [3] deals with S. aureus LMG 8224. Description: Kirby-Bauer disc diffusion. The format is cell-based, Staphylococcus aureus. The settings on record: for zone of inhibition at 30 µg/disc: Staphylococcus aureus; for Inhibition zone: 53 μM/disc (30 μg/disc for dimeric A/S, 15 μg/disc for shikonin and alkannin). The protocol:
(§1) The antibacterial activity of neat and A/S mixture-loaded fibrous scaffolds was evaluated against the Gram-positive strains, Staphylococcus epidermidis LMG 10474 and S. aureus LMG 8224, implementing the Kirby-Bauer disc diffusion method. The bacteria were cultured onto nutrient agar plates (24 h at 37 °C) and then a dense bacterial suspension was made by transferring a small portion of staphylococci (10 μL) with an inoculating loop to 1 mL of sterile PBS. Next, 100 μL of this suspension were spread to Mueller-Hinton (MH) agar plates for conducting the test. UV-sterilized nanofibers with an average diameter of 8 mm were placed on the surface of inoculated MH plates. The plates were incubated for a period of 24 h at 37 °C. […] After 24 h, the antibacterial activity was evaluated by measuring the inhibition zone of the bacteria in millimeters.

Data set [4] deals with S. epidermidis LMG 10474. Kind of data set: Kirby-Bauer disc diffusion. The format is cell-based, Staphylococcus epidermidis. The settings on record: for zone of inhibition at 30 µg/disc: Staphylococcus epidermidis; for Inhibition zone: 53 μM/disc (30 μg/disc for dimeric A/S, 15 μg/disc for shikonin and alkannin). The protocol: as §1
For data set [5], the system named is human skin fibroblasts. The arrangement: method as in PMID 25234005. The settings on record: non-selective toxicity towards normal cell lines ref 42; cited from earlier work.
A short description of data set [6]: SAR study of A/S derivatives on Hs27 metabolic activity (MTT). The settings on record: human. The protocol: (§2) In this regard, each compound was first dissolved in DMSO and further diluted with DMEM up to the desired concentrations (< 0.1% v/v DMSO to avoid toxicity). […] After the respective incubation times, the metabolic activity was evaluated by MTT assay as described in the previous section. Untreated cells served as controls.

Data set [7] concerns Hs27 fibroblasts. The data set is described as above. The settings on record: for Effect on Hs27 cell viability: 24 h, MTT, vs untreated cells. The protocol:
as §2

In data set [8] the test system is granuloma tissue in Wistar rats. Set-up: method as in PMID 9586574. The settings on record: dose-dependent ref 41; cited from earlier work.
Data set [9] concerns keratinocytes. Set-up: method as in PMID 27725239. The settings on record: at 1.5 and 3 μΜ ref 40; cited from earlier work.
In data set [10] the test system is human gingival fibroblasts. The arrangement: method as in PMID 31574951. The settings on record: at 1 μΜ ref 39; cited from earlier work.
Data set [11] relates to S. epidermidis. Set-up: method as in PMID 760130, PMID 5066306. The settings on record: cited from earlier work.
Setting [12] is: LMG8224, 30 μg/disc on 8 mm filter paper, 24 h, read-out: Zone of inhibition.
[13] abbreviates: LMG10474, 30 μg/disc on 8 mm filter paper, 24 h, read-out: Zone of inhibition.

For `CC(=O)O[C@H](CC=C(C)C)C1=CC(=O)c2c(O)ccc(O)c2C1=O` [Acetyl-shikonin, acetyl-shikonin], in data set [1], the Growth inhibition entry is reported as “inhibited the growth”. The “Log P” value in data set [2] is recorded as 0.66 ^c. Further, the zone of inhibition – broadly, the size of the clear area around the sample on an inoculated plate – at 30 µg/disc in data set [3] (LMG8224, 24 h) turned out to be 11.9 ± 1.43 mm; in data set [4] (LMG10474, 24 h) it was 14.1 ± 1.25 mm.
As for `CC(C)=CC[C@H](O)C1=CC(=O)c2c(O)ccc(O)c2C1=O` [Alkannin, alkannin], in [2], the “Log P” value is on record as −0.27 ^c. Further, the IC50 – broadly, the concentration at which inhibition is half-maximal – in data set [5] was 1500 ± 100 nM. In addition, the Inhibition zone in data set [3] is on record as 10.74 ± 0.74 mm; in data set [4] it was 10.69 ± 1.01 mm. The zone of inhibition at 30 µg/disc in data set [3] (LMG8224, 24 h) came to 12.7 ± 0.58 mm; in data set [4] (LMG10474, 24 h), 15.2 mm. In data set [4] (30 μg/disc on 8 mm filter paper, 24 h), this compound had a Zone of inhibition of 15.16 ± 0.66 mm. For the same compound, in data set [6], the viability (usually a read-out of living cells in per cent, often relative to untreated cells) at 3 days, 0.5 µM was greater than 110%. Also, the “Effect on Hs27 cell viability” value in data set [7] (1 μM) is on record as “significant decrease in cell number”. Also, the “Proliferation of granuloma tissue” value in data set [8] is reported as “succeeded in accelerating (dose-dependently) the proliferation of granuloma tissue”.
Regarding `CC(C)=CCCC1=CC(=O)c2c(O)ccc(O)c2C1=O` [Deoxy-shikonin, deoxy-shikonin], in [9], the In vitro migration entry is “enhanced the in vitro migration”. Besides, the “Log P” value in [2] is on record as 1.08^c. Besides, the zone of inhibition at 30 µg/disc in [3] (LMG8224, 24 h) turned out to be 12.4 ± 0.23 mm; in data set [4] (LMG10474, 24 h) it was 13.2 ± 0.22 mm.
For `CC(C)=CCC(OC(=O)CC(C)C)C1=CC(=O)c2c(O)ccc(O)c2C1=O` (stereo not shown) [Isovaleryl-shikonin, isovaleryl-shikonin], the zone of inhibition at 30 µg/disc in data set [3] (setting [12]) came to 9.13 ± 0.51 mm; in data set [4] (setting [13]), 11.1 ± 0.94 mm. The Proliferation rate ranking entry in data set [7] (day 3, isovaleryl-shikonin at 500 nM and 1 μM, dimeric A/S at 1 μM) is reported as “highest proliferation rates”.
As for `CC(C)=CC[C@@H](O)C1=CC(=O)c2c(O)ccc(O)c2C1=O` [Shikonin, shikonin], the Growth inhibition result in data set [1] is reported as “inhibited the growth”. For the same compound, in data set [2], the “Log P” value is given as −0.27 ^c. Besides, the In vitro migration entry in data set [10] is recorded as “enhanced the in vitro migration”. The concentration for half-maximal inhibition (IC50) in [5] is 1200 ± 100 nM. Also, the Inhibition zone is reported as 11.08 ± 0.26 mm in data set [3] and 10.77 ± 1.07 mm in data set [4]. Moreover, the zone of inhibition at 30 µg/disc in [3] (LMG8224, 24 h) came out at 12.3 ± 0.64 mm; in data set [4] (LMG10474, 24 h), 14.8 ± 2.12 mm. Further, the “Effect on Hs27 cell viability” value in [7] (500 nM) and in [7] (1 μM) was “significant decrease in cell number” in each case. In addition, the “Proliferation of granuloma tissue” value in [8] is “succeeded in accelerating (dose-dependently) the proliferation of granuloma tissue”.
`CC(C)=CCC(OC(=O)C=C(C)C)C1=CC(=O)c2c(O)ccc(O)c2C1=O` (stereo not drawn) [β,β-Dimethyl-acryl-shikonin, β,β-dimethyl-acryl-shikonin]: the Growth inhibition result in data set [1] and in data set [11] was “effective” in each case. In addition, in [2], the “Log P” value is listed as 1.38 ^c. Also, the zone of inhibition at 30 µg/disc in data set [3] (setting [12]) came to 8.98 ± 0.17 mm; in [4] (setting [13]), 10.6 ± 0.57 mm.
